# Assay results reported in ChEMBL document CHEMBL4680171, “Oxadiazolylthiazoles as novel and selective antifungal agents” (Eur J Med Chem, 2020).
# Calls of active or inactive are those of the source. The rule behind the calls is not given here.
# Key:
# Staphylococcus aureus = experiment: Antibacterial activity against methicillin resistant Staphylococcus aureus subsp. aureus USA300 assessed as reduction in bacterial growth by CLSI based broth microdilution method; assay type: functional
# Clostridioides difficile = experiment: Antibacterial activity against Clostridium difficile BAA1870 assessed as reduction in bacterial growth by CLSI based broth microdilution method; assay type: functional
# Candida albicans [1] = experiment: Antifungal activity against Candida albicans SS5314 assessed as reduction in fungal growth by CLSI based broth microdilution method; assay type: functional
# Escherichia coli [2] = experiment: Antibacterial activity against Escherichia coli JW55031 harboring tolC mutation assessed as reduction in bacterial growth by CLSI based broth microdilution method; assay type: functional
# Escherichia coli [3] = experiment: Antibacterial activity against Escherichia coli BW25113 assessed as reduction in bacterial growth by CLSI based broth microdilution method; assay type: functional
# Cryptococcus neoformans [4] = experiment: Antifungal activity against Cryptococcus neoformans NR41300 assessed as reduction in fungal growth incubated for 48 hrs by CLSI based broth microdilution method; assay type: functional
# Aspergillus fumigatus [5] = experiment: Antifungal activity against Aspergillus fumigatus NR 35303 assessed as reduction in fungal growth incubated for 24 hrs by CLSI based broth microdilution method; assay type: functional
# [6] = tested on: Cryptococcus gattii species complex; experiment: Antifungal activity against Cryptococcus gattii NR43210 assessed as reduction in fungal growth incubated for 48 hrs by CLSI based broth microdilution method; assay type: functional, Cryptococcus bacillisporus
# Nakaseomyces glabratus [7] = experiment: Antifungal activity against Candida glabrata ATCC MYA-2950 assessed as reduction in fungal growth incubated for 24 hrs by CLSI based broth microdilution method; assay type: functional
# Lactobacillus gasseri = experiment: Antibacterial activity against Lactobacillus gasseri HM-400 assessed as reduction in bacterial growth by CLSI based assay
# [Candida] auris [8] = Antifungal activity against fluconazole-resistant Candida auris 381 assessed as reduction in fungal growth incubated for 24 hrs by CLSI based broth microdilution method; assay type: functional; settings: Candidozyma auris
# Aspergillus fumigatus [9] = experiment: Antifungal activity against Aspergillus fumigatus NR 35304 assessed as reduction in fungal growth incubated for 24 hrs by CLSI based broth microdilution method; assay type: functional
# Pichia kudriavzevii [10] = experiment: Antifungal activity against Candida krusei CAB 396420 assessed as reduction in fungal growth incubated for 24 hrs by CLSI based broth microdilution method; assay type: functional
# Pichia kudriavzevii [11] = experiment: Antifungal activity against Candida krusei ATCC 34135 assessed as reduction in fungal growth incubated for 24 hrs by CLSI based broth microdilution method; assay type: functional
# Candida parapsilosis [12] = experiment: Antifungal activity against Candida parapsilosis ATCC 22019 assessed as reduction in fungal growth incubated for 24 hrs by CLSI based broth microdilution method; assay type: functional; settings: Lodderomyces parapsilosis
# Lactobacillus crispatus = experiment: Antibacterial activity against Lactobacillus crispatus HM-370 assessed as reduction in bacterial growth by CLSI based assay
# Candida albicans [13] = experiment: Antifungal activity against Candida albicans SS5314 assessed as reduction in fungal growth measured after 10 passages by CLSI based broth microdilution method; assay type: functional, organism-based
# Candida albicans [14] = experiment: Antifungal activity against Candida albicans ATCC 10231 assessed as reduction in fungal growth incubated for 24 hrs by CLSI based broth microdilution method; assay type: functional
# [Candida] auris [15] = Antifungal activity against fluconazole-resistant Candida auris 384 assessed as reduction in fungal growth incubated for 24 hrs by CLSI based broth microdilution method; assay type: functional; settings: Candidozyma auris
# Candida albicans [16] = experiment: Antibiofilm activity against 24 hrs preformed biofilm of Candida albicans NR29448 assessed as disruption of mature biofilm at 64 ug/ml incubated for 24 hrs by crystal violet staining based spectrophotometry relative to control; assay type: functional; settings: dose 64.0 µg/ml
# Candida albicans [17] = experiment: Antifungal activity against Candida albicans SS5314 assessed as reduction in fungal growth incubated for 24 hrs by CLSI based broth microdilution method; assay type: functional
# Cryptococcus neoformans [18] = experiment: Antifungal activity against Cryptococcus neoformans NR48770 assessed as reduction in fungal growth incubated for 48 hrs by CLSI based broth microdilution method; assay type: functional
# Candida parapsilosis [19] = experiment: Antifungal activity against Candida parapsilosis CAB 502638 assessed as reduction in fungal growth incubated for 24 hrs by CLSI based broth microdilution method; assay type: functional; settings: Lodderomyces parapsilosis
# Cryptococcus neoformans [20] = experiment: Antifungal activity against Cryptococcus neoformans NR41298 assessed as reduction in fungal growth incubated for 48 hrs by CLSI based broth microdilution method; assay type: functional
# Lacticaseibacillus casei = experiment: Antibacterial activity against Lactobacillus casei HM-334 assessed as reduction in bacterial growth by CLSI based assay; assay type: organism-based
# Nakaseomyces glabratus [21] = experiment: Antifungal activity against Candida glabrata ATCC 66032 assessed as reduction in fungal growth incubated for 24 hrs by CLSI based broth microdilution method; assay type: functional
# [Candida] auris [22] = Antifungal activity against fluconazole-resistant Candida auris 383 assessed as reduction in fungal growth incubated for 24 hrs by CLSI based broth microdilution method; assay type: functional; settings: Candidozyma auris
# Candida albicans [23] = experiment: Antifungal activity against fluconazole-resistant Candida albicans NR29448 assessed as reduction in fungal growth incubated for 24 hrs by CLSI based broth microdilution method; assay type: functional
# [24] = tested on: Cryptococcus gattii species complex; experiment: Antifungal activity against Cryptococcus gattii NR43209 assessed as reduction in fungal growth incubated for 48 hrs by CLSI based broth microdilution method; assay type: functional, Cryptococcus bacillisporus
# Candida albicans [25] = experiment: Fungistatic activity against Candida albicans SS5314 at 5 to 10x MIC measured for 36 hrs by time kill assay; assay type: functional, organism-based
# Candida albicans [26] = experiment: Antibiofilm activity against Candida albicans NR29448 assessed as reduction in biofilm formation at 0.5XMIC incubated for 24 hrs by crystal violet staining based assay relative to control; assay type: functional
# Vero = experiment: Cytotoxicity against African green monkey Vero cells assessed as reduction in cell viability at 16 ug/ml incubated for 2 hrs by MTS assay; assay type: cell-based; settings: chlorocebus sabaeus, dose 16 µg/ml
# [27] = Cytotoxicity against African green monkey Vero cells assessed as reduction in cell viability incubated for 2 hrs by MTS assay; assay type: cell-based; settings: chlorocebus sabaeus
# Candida albicans [28] = experiment: Fungicidal activity against Candida albicans SS5314 assessed as eradication of fungal count at 5XMIC measured after 2 hrs by time kill assay relative to control; assay type: functional
compound,measurement,setting,value
Cc1nc(-c2ccc(C(C)(C)C)cc2)sc1-c1nnc(N2CC[C@H](N(C)C)C2)o1,MIC,Staphylococcus aureus,> 64 µg/mL
same,MIC,Clostridioides difficile,32 µg/mL
same,MIC,Candida albicans [1],> 64 µg/mL
same,MIC,Escherichia coli [2],> 64 µg/mL
same,MIC,Escherichia coli [3],> 64 µg/mL
OC(Cn1cncn1)(Cn1cncn1)c1ccc(F)cc1F [FLUCONAZOLE],MIC,Cryptococcus neoformans [4],1 µg/mL
same,MIC,Aspergillus fumigatus [5],> 64 µg/mL
same,MIC,[6],4 µg/mL
same,MIC,Nakaseomyces glabratus [7],16 µg/mL
same,MIC,Lactobacillus gasseri,> 128 µg/mL
same,MIC,[Candida] auris [8],2 µg/mL
same,MIC,Aspergillus fumigatus [9],> 64 µg/mL
same,MIC,Pichia kudriavzevii [10],16 µg/mL
same,MIC,Pichia kudriavzevii [11],16 µg/mL
same,MIC,Candida parapsilosis [12],1 µg/mL
same,MIC,Lactobacillus crispatus,> 128 µg/mL
same,Activity,Candida albicans [13],Active
same,MIC,Candida albicans [14],1 µg/mL
same,MIC,[Candida] auris [15],> 128 µg/mL
same,Activity,Candida albicans [16],inactive
same,MIC,Candida albicans [17],1 µg/mL
same,MIC,Cryptococcus neoformans [18],2 µg/mL
same,MIC,Candida parapsilosis [19],0.5 µg/mL
same,MIC,Cryptococcus neoformans [20],2 µg/mL
same,MIC,Lacticaseibacillus casei,> 128 µg/mL
same,MIC,Nakaseomyces glabratus [21],8 µg/mL
same,MIC,[Candida] auris [22],128 µg/mL
same,MIC,Candida albicans [23],> 128 µg/mL
same,MIC,[24],4 µg/mL
same,MIC,Candida albicans [1],> 64 µg/mL
same,Activity,Candida albicans [25],Active
same,inhibition (INH),Candida albicans [26],50%
Cc1nc(-c2ccc(C(C)(C)C)cc2)sc1-c1nnc(NCCCO)o1,MIC,Staphylococcus aureus,> 64 µg/mL
same,MIC,Clostridioides difficile,32 µg/mL
same,MIC,Candida albicans [1],> 64 µg/mL
same,MIC,Escherichia coli [2],> 64 µg/mL
same,MIC,Escherichia coli [3],> 64 µg/mL
Cc1nc(-c2ccc(C(C)(C)C)cc2)sc1-c1nnc(NC2CCNC2)o1 (stereo unspecified),MIC,Staphylococcus aureus,32 µg/mL
same,MIC,Clostridioides difficile,16 µg/mL
same,MIC,Candida albicans [1],> 64 µg/mL
same,MIC,Escherichia coli [2],32 µg/mL
same,MIC,Escherichia coli [3],> 64 µg/mL
Cc1nc(-c2ccc(C(C)(C)C)cc2)sc1-c1nnc(N[C@@H]2CCCC[C@H]2N)o1 (relative stereo),MIC,Staphylococcus aureus,64 µg/mL
same,MIC,Clostridioides difficile,16 µg/mL
same,MIC,Candida albicans [1],64 µg/mL
same,MIC,Escherichia coli [2],> 64 µg/mL
same,MIC,Escherichia coli [3],> 64 µg/mL
C[C@@H]1[C@H](O)[C@@H](C)/C=C/C=C/C=C/C=C/C=C/C=C/C=C/[C@H](O[C@@H]2O[C@H](C)[C@@H](O)[C@H](N)[C@@H]2O)C[C@@H]2O[C@](O)(C[C@@H](O)C[C@@H](O)[C@H](O)CC[C@@H](O)C[C@@H](O)CC(=O)O[C@H]1C)C[C@H](O)[C@H]2C(=O)O [AMPHOTERICIN B],MIC,Cryptococcus neoformans [4],1 µg/mL
same,Activity,Vero,Toxic
same,MIC,[6],1 µg/mL
same,MIC,Nakaseomyces glabratus [7],1 µg/mL
same,MIC,Lactobacillus gasseri,> 128 µg/mL
same,MIC,[Candida] auris [8],0.5 µg/mL
same,MIC,Pichia kudriavzevii [10],2 µg/mL
same,MIC,Pichia kudriavzevii [11],2 µg/mL
same,CC50 at 2 h,[27],8 µg/mL
same,MIC,Candida parapsilosis [12],0.5 µg/mL
same,MIC,Lactobacillus crispatus,> 128 µg/mL
same,MIC,Candida albicans [14],1 µg/mL
same,MIC,[Candida] auris [15],2 µg/mL
same,MIC,Candida albicans [17],1 µg/mL
same,MIC,Cryptococcus neoformans [18],1 µg/mL
same,Activity,Candida albicans [28],100%
same,MIC,Candida parapsilosis [19],0.5 µg/mL
same,MIC,Cryptococcus neoformans [20],1 µg/mL
same,MIC,Lacticaseibacillus casei,> 128 µg/mL
same,MIC,Nakaseomyces glabratus [21],2 µg/mL
same,MIC,[Candida] auris [22],1 µg/mL
same,MIC,Candida albicans [23],1 µg/mL
same,MIC,[24],1 µg/mL
same,MIC,Candida albicans [1],1 µg/mL
Cc1nc(-c2ccc(C(C)(C)C)cc2)sc1-c1nnc(N2CCC[C@@H]2CO)o1,MIC,Staphylococcus aureus,> 64 µg/mL
same,MIC,Clostridioides difficile,32 µg/mL
same,MIC,Candida albicans [1],> 64 µg/mL
same,MIC,Escherichia coli [2],> 64 µg/mL
same,MIC,Escherichia coli [3],> 64 µg/mL
